The values below come from article PMC10666288, “Unveiling the Catalytic Mechanism of a Processive Metalloaminopeptidase” (Biochemistry, 2023).

For orientation: Kd means the equilibrium constant for the complex coming apart. Low values mean tighter binding, high ones weaker binding. A word on the Ki: it is the dissociation constant of the complex between target and ligand, obtained from inhibition or displacement.

Where “and” joins values, the source holds several entries; their conditions need not be identical. Equal values may be shown once.

The target of test [1] is T1, PaPepA (Pseudomonas aeruginosa, UniProt Q02RY8). Put plainly: Isothermal titration calorimetry of metal binding. The arrangement: GG stays after cleavage) (N); made in house; host or cells: E. coli BL21(DE3). Here is the method: Purified PaPepA (100 μM) was buffer exchanged into ITC buffer (50 mM Tris, 140 mM NaCl, pH 7.4) using a Millipore Amicon Ultra-4 centrifugal unit (10 kDa MWCO). The protein was syringe-filtered through a […] and diluted to 50 μM. 3 mL solutions of filtered metal were also prepared. A 400 μM solution of MnCl2 and a 1 mM solution of MgCl2 were prepared by dilution of 1 M metal chloride stocks (Sigma) into ITC buffer.
T1 sequence (Q02RY8 whole entry): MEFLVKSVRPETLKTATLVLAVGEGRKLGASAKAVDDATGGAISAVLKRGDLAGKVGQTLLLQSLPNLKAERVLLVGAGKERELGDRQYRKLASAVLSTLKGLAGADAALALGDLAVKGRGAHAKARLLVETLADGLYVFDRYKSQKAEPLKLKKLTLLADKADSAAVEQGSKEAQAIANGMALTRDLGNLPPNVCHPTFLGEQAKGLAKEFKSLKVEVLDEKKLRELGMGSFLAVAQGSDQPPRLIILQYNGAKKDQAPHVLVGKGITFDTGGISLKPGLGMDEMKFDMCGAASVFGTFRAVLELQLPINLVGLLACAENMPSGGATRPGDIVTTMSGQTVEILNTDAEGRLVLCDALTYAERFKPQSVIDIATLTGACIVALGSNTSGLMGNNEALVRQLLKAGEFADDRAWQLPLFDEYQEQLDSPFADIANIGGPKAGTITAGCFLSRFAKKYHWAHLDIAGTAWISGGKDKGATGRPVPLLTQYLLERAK
Buffer, protein, and metal solutions were degassed. Following extensive washes with ITC buffer, the protein was loaded into the cell (volume 1.43 mL) of a VP-ITC (MicroCal) and MnCl2 or MgCl2 solution was loaded into the syringe (total volume 300 μL). Experiments were carried out using the following settings: temperature = 25 °C, duration = 4 s, spacing = 210 s, filter period = 2 s, for 35 injections (one injection of 2 μL followed by 34 injections of 8 μL). Data were analyzed using Origin(Pro), Version 2021 (OriginLab Corporation, Northampton, Massachusetts, USA), and MicroCal PEAQ-ITC analysis software (Malvern).
(Isothermal titration calorimetry measures the heat released or taken up as one component is titrated into another.)

The target in test [2] is T1, PaPepA. Nature of the test: Metal activation of Leu-pNA cleavage (metal varied, Leu-pNA fixed). The class given is biochemical. Set-up: GG stays after cleavage) (N); made in house; host or cells: E. coli BL21(DE3). The note with it: with 2 mM Leu-pNA. Here is the method: A BMG Labtech POLARstar Omega plate reader was used for activity assays and kinetic studies involving amino acids conjugated to para-nitroaniline (pNA) (Sigma) or peptides as substrates. Assays were carried out at 25 °C in clear half-area 96-well plates (Greiner Bio-One). […] For kinetic assays investigating Leu-AMC as a substrate, a SpectraMax M2E was used. Reactions were carried out using black half-area 96-well plates with clear bottoms (Greiner Bio-One). Product formation was assessed by monitoring changes in fluorescence, with the excitation wavelength set at 341 nm and emission at 441 nm. The cutoff was 420 nm. PMT gain was set to medium, with six flashes per read. […] Calibration curves of pNA concentration vs absorbance and AMC vs fluorescence were constructed, and initial rate values were divided by the slope of these calibration curves to reveal the rate of product formation over time (Table S2).
For all assays excluding pH dependence curves, buffer conditions were as follows: 100 mM HEPES, 50 mM KCl, and pH 8.0. For assays carried out under pseudo-first-order conditions, one reaction component was fixed and in excess, while the other was varied. […] For assays involving variation of aa-pNA or aa-AMC, MnCl2 was added to a final concentration of 3 mM.

Test [3] addresses T1, PaPepA. Nature of the test: Solvent kinetic isotope effects. The format is biochemical. Set-up: GG stays after cleavage) (N); made in house; host or cells: E. coli BL21(DE3). The note with it: H2O vs 80% D2O, metal varied, Leu-pNA fixed, pH 8.0. The procedure: SKIEs were determined by plotting saturation curves in H2O or 80% D2O. […] Differences between reaction rates under initial velocity conditions were measured varying the concentration of either Leu-pNA or Mn^2+, while keeping the other component constant and in excess (at least 5× the value of KM or KACT, Scheme 2). Experiments were performed at pH 8.0 (100 mM HEPES, with 50 mM KCl). For proton inventory studies, D2O was varied from 0 to 80% in 10% increments. All proton inventory studies were carried out on the same day by using the same enzyme stock.
When calculating SKIEs, kcat and KM were obtained from the Michaelis–Menten curves in H2O. The 80% D2O Michaelis–Menten curve was fit to the following equation: [drawing 2] 2 where Fi is the fraction D2O, and EV/K and EV are the isotope effects −1 on kcat/KM and kcat, respectively.

Test [4] has as its target T1, PaPepA. Put plainly: Zn2+ inhibition in the pNA assay with Mn2+. The format is biochemical. Set-up: GG stays after cleavage) (N); made in house; host or cells: E. coli BL21(DE3). The procedure:
Figure 3 PaPepA metal binding and catalysis. (A) PaPepA activity with different divalent metals assessed through kcat/KACT. Leu-pNA was present in all assays at a concentration of 2 mM. (B) The effects of Zn^2+ and Mn^2+ preincubation, followed by extensive dialysis in metal-free buffer and subsequent addition of excess Mn^2+. (C) Michaelis–Menten plots showing inhibition of PaPepA by Zn^2+. Data were fit to a noncompetitive mixed model of inhibition. (D) Representative plots of the ITC data for titrations of MnCl2 (left) and MgCl2 (right) with PaPepA. The top panel depicts raw data, and the bottom panel depicts the resulting enthalpy changes as a function of molar addition of metal as well as the best fit to a single binding site model. (E) Plot of room-temperature EPR double integrals against Mn^2+ concentration for samples without enzyme (teal dots) and in the presence of 20 μM PaPepA (purple dots). […] (F) Frozen solution EPR spectra of PaPepA in the presence of various ratios of Mn^2+: enzyme, upper box zoomed-in data without the metal in buffer control. For panels (A), (B), and (C), data are mean ± SEM across three replicates. For Figure 3D, experiments were performed in two separate biological replicates, one shown here for illustration, and all data were acquired in Figure S11. […]

The target in test [5] is T1, PaPepA. The note with it: degassed solutions, 3 mM MnCl2, 2 mM Leu-pNA, sodium bicarbonate 0 to 5 mM.
From the text: For assays investigating bicarbonate dependence, all buffers and stock solutions were extensively degassed prior to use.[25]
In test [6] the target is T1, PaPepA. Nature of the test: biochemical.
From the text: MnCl2 was present in excess.
concentrations of Leucine as an inhibitor.
The target in test [7] is T1, PaPepA. Put plainly: Alcohol dehydrogenase peptide degradation assay (LC-MS). The format is biochemical. The arrangement: GG stays after cleavage) (N); made in house; host or cells: E. coli BL21(DE3). Conditions: MassPREP ADH digest, 100 nM PaPepA, 3 mM MnCl2, overnight. The procedure:
A vial of MassPREP ADH digestion standard (Waters) was reconstituted in 200 μL of LC-MS grade water. Reaction mixtures were prepared by combining 25 μL of ADH solution, 3 mM MnCl2, and 100 nM PaPepA (final concentrations) in a total volume of 50 μL buffer (100 mM HEPES pH 8.0, 50 mM KCl). For control reactions, the addition of PaPepA was omitted. Samples and controls were each prepared in triplicate and incubated overnight, and reactions quenched with the addition of […] of 10% TCA. Following the addition of acid, PaPepA was added to control samples to a final concentration of 50 nM (equivalent to a concentration of enzyme in the reaction samples following acid quenching). Samples were concentrated to 20 μL. A 1 μL portion of this was diluted in 100 μL of LC-MS grade water. 10 μL was injected and analyzed on a SCIEX TripleTOF 5600+ mass spectrometer with an Eksigent 425 nanoLC configured in trap elute configuration. Each sample was loaded onto the trap (Waters ACQUITY M-Class symmetry column 180 μm × 20 mm) and washed with 0.05% TFA in water for 5 min at 5 μL/min. The trap was then switched in line with the Waters M-Class HSS1 analytical column, 75 μm × 150 mm, with a flow rate of 300 nL/min. Samples were eluted over 30 min using a linear gradient from 98% A (100% water 0.1% FA) 2% B (80% MeCN, […] 0.1% FA) to 60% A, 40% B linearly over 12 min, rising to 5% A, 95% B, before returning to 98% A to re-equilibrate. Eluate from the column was sprayed directly into the nanospray source of the mass spectrometer. MS data were collected from 400 to 1250 m/z as the survey scan, and under data-dependent acquisition (DDA) setting, the top 20 strongest peptides were selected for MS/MS using CID fragmentation. Peptide mass tolerance was 20 ppm on the MS and 0.1 Da on the MS/MS.
Identification and analysis of ADH peptides were performed using the Skyline open-access software package (version 22.2). Raw data were extracted using msConvert (ProteoWizard) and the data searched using Skyline against the ADH1 sequence from Saccharomyces cerevisiae (UniProt: P00330). The digestion enzyme was set as trypsin, allowing up to three missed cleavages. Searches encompassed peptides between 400 and 1250 m/z with a mass tolerance of 0.3 m/z. Carbamidomethyl was set as a fixed modification for cysteine residues. Data were searched for the protonated 1+, 2+, and 3+ charge states of each peptide.
Peaks were integrated, and areas were used to qualitatively assess differences in peptide abundances across PaPepA-digested samples and controls. Peptides present in control samples but absent in reactions (integrated area <1000) were classified as “digested”.

As for `[Mg+2]` [Mg^2+], on PaPepA [1] (ITC stoichiometry per monomer), the “number of metal atoms binding the protein” value was 0.68. Further, the Kd at PaPepA [1] (ITC, first line per metal: N 1, [PepA] 35.80 ± 1.5 (Mn) or 32.60 (Mg) µM, [Metal] 400.0 or 1000 µM) came to 1.84 ± 0.182 µM; at PaPepA [1] (ITC, one binding site per monomer) it was 2.1 ± 0.3 µM; on PaPepA [1] (ITC, one binding site per monomer, 25 °C, pH 7.4), 2.14 ± 0.326 µM; at PaPepA [1] (ITC, second line per metal: N 1, [PepA] 47.00 or 48.00 µM, [Metal] 526.5 ± 22.5 (Mn) or 1470 (Mg) µM) it was 2.72 ± 0.47 µM; on PaPepA [1] (ITC, third line per metal: N fitted, [PepA] 47.00 or 48.00 µM, [Metal] 400.0 or 1000 µM), 1.84 ± 0.182 µM. For the same molecule, the N at PaPepA [1] (ITC, third line per metal: N fitted) was 0.679 ± 0.001. Besides, the KACT on PaPepA [2] (pH 8.0) is 3 mM and 3.0 ± 0.7 mM; on PaPepA [2] (pH 8.0, listed as MgCl2), ~3 mM. In addition, on PaPepA [2] (pH 8.0), the kcat amounted to 0.051 ± 0.002 s^–1. On PaPepA [2] (pH 8.0), the kcat/KACT was determined as 0.017 ± 0.004 s^–1mM^–1. At PaPepA [3], the “^D2Okcat” value was determined as 3.1 ± 0.1. Also, the “^D2Okcat/KACT” value on PaPepA [3] amounted to 2.3 ± 0.1.
For the molecule `[Zn+2]` [Zn^2+], on PaPepA [2] (pH 8.0), the KACT came to 0.02 ± 0.01 mM; the kcat is 0.009 s^–1 and 0.009 ± 0.001 s^–1; the kcat/KACT came out at 0.5 ± 0.2 s^–1mM^–1. On PaPepA [2] (pH 8.0, as given in text), the KACT is 0.02 mM. At PaPepA [4] (Zn^2+ and Mn^2+ both added without preincubation, noncompetitive mixed model), this molecule had a Ki of 12200 nM. At PaPepA [4] (noncompetitive model of inhibition), this molecule displayed a α of 5.6.
Regarding `O=C([O-])O.[Na+]` [bicarbonate, sodium bicarbonate], at PaPepA [5], the “activation by bicarbonate (in words)” value is on record as “not observed activation or increase in activity”.
`CC(C)C[C@H](N)C(=O)O` [leucine] registered a Ki at PaPepA [6] of 601000 nM.
For the molecule “YSGVC[+57.0]HTDLHAWHGDWPLPVK: tryptic peptide of yeast ADH, carbamidomethyl cysteine”, the “Cleaved?” value with PaPepA [7] is given as “Digested (Peptides present in control samples but absent in reactions (integrated area <1000) were classified as “digested”)”.
